Results: PMC5828360, “Identification and characterization of highly versatile peptide-vectors that bind non-competitively to the low-density lipoprotein receptor for in vivo targeting and delivery of small molecules and protein cargos” (PLoS ONE, 2018)
Where a SMILES comes first, the peptide text is derived from it. The star is where a group is joined. Propionyl = CCC(=O)*

Tests used:
[1] = target: T1, hTfR (Homo sapiens, UniProt P02786); experiment: Image J quantification of co-localization with hTfR-GFP (control); type: cell-based; conditions: CHO-hTfR-GFP, 10 μM
T1 construct: Full length coding regions for hLDLR, mLDLR, rLDLR and hTfR were amplified by RT-PCR; expressed in transfected cells
T1 sequence (P02786 whole entry): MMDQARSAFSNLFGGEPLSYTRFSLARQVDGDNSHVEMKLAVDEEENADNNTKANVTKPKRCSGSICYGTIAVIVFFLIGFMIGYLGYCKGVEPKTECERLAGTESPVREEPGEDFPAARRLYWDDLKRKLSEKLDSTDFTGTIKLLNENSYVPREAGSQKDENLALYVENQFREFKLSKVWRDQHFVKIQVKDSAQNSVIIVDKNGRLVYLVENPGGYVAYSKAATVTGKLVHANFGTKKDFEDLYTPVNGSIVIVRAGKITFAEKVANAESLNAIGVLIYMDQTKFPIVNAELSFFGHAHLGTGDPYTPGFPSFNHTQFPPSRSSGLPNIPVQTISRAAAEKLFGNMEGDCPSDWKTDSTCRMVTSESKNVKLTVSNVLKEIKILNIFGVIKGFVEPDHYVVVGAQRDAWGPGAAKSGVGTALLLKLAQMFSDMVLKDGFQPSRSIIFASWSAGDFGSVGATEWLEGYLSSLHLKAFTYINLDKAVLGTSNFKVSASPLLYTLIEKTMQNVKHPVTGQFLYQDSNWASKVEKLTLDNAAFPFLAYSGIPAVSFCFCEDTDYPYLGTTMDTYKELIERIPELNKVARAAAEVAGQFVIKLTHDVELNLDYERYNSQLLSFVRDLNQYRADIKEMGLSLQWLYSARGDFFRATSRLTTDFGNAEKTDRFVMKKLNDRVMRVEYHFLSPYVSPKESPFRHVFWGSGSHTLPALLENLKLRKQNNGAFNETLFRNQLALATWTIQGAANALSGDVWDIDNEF

[2] = target: T2, hLDLR (Homo sapiens, UniProt P01130); experiment: Image J quantification of co-localization with hLDLR-GFP; type: cell-based; conditions: CHO-hLDLR-GFP, 10 μM, n = 3
T2 construct: Full length coding regions for hLDLR, mLDLR, rLDLR and hTfR were amplified by RT-PCR; expressed in transfected cells
T2 sequence (P01130 22-860): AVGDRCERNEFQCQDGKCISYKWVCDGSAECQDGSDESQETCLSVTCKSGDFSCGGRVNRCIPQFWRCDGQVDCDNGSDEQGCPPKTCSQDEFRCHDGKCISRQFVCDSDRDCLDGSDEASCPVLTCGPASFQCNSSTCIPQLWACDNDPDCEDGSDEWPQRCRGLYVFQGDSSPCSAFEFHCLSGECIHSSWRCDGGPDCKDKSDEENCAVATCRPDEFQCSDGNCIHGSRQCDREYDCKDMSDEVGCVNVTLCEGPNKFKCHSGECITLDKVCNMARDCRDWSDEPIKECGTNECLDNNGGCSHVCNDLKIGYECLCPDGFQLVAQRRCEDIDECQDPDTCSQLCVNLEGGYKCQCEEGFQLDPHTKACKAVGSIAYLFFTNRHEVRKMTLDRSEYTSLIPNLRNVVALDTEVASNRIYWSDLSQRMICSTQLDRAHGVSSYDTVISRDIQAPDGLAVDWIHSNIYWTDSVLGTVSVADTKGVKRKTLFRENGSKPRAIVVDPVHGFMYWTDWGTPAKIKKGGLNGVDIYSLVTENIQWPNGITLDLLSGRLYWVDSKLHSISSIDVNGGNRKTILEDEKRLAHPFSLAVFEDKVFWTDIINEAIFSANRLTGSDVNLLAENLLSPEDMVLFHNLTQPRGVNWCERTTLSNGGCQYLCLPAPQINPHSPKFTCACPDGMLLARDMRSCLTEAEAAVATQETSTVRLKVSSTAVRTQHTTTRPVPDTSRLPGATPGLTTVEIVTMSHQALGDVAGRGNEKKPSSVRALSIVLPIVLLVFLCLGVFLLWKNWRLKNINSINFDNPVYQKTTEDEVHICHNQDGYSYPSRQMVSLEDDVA

[3] = target: T3, mLDLR (Mus musculus, UniProt P35951); conditions: in vivo, iv, 0.5 mg/kg
T3 construct: cells expressing LDLR in the zona fasciculata of WT mice; from tissue; host or cells: adrenal gland of C57Bl/6J mice (WT; ldlr-/- as control)
T3 sequence (P35951 22-862): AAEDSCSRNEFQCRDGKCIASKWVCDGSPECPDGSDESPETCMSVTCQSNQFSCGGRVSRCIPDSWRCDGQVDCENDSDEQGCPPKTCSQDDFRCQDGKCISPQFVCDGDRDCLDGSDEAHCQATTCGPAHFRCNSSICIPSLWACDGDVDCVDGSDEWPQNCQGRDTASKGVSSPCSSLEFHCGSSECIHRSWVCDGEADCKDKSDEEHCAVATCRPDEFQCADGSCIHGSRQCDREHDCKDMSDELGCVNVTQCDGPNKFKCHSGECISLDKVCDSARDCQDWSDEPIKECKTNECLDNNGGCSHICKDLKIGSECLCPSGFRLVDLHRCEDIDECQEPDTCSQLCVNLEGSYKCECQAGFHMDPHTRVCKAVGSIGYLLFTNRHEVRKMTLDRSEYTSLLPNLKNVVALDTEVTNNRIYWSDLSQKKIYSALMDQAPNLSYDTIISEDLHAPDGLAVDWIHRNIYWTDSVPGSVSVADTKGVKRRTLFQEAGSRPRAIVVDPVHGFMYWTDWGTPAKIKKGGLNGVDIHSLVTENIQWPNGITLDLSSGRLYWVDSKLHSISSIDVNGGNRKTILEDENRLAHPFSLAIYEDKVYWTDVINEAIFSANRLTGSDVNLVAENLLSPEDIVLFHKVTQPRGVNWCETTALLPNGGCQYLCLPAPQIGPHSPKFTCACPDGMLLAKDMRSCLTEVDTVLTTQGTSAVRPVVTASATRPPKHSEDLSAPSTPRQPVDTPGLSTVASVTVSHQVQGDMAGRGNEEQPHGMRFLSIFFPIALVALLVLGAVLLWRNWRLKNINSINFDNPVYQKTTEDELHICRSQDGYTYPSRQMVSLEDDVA
Description: For immunohistochemistry, transcardiac NaCl 0.9% perfusion was followed by 50 mL of PBS 1X- 4% paraformaldehyde (PFA). Mice organs were then removed and snap frozen in cold isopentane. Cryostat (Leica CM-3050-S) sections (14 μm thick) were stored at −80°C. Organ sections were first permeabilized and blocked for 1 hr at room temperature using a solution of PBS 1X, 0.1% Triton X-100 and 3% Bovine Serum Albumin (BSA). Sections were then incubated overnight at 4°C with anti-Fc-A594 (goat, 1/200, Jackson ImmunoResearch) and anti-mLDLR (goat 1/200, R&D Systems), followed by anti-goat-Alexa 488 (donkey, 1/800, Life Technologies) for 1 hr at room temperature. Nuclei were stained with Hoechst (0.5 μg/mL, Life Technologies). Omission of the primary antibody was used as control and no immunostaining was observed. Sections were mounted using Prolong Gold Antifading reagent (Life Technologies) on Superfrost glass slides. Images were taken and processed using a confocal microscope (LSM 700) and Zen software (Zeiss, Jena, Germany).

percentage of hLDLR that co-localized with the S-Tag peptide [2] | Compound | other results
– | CCC(=O)N[C@@H]1CSSC(C)(C)[C@@H](C(=O)NCC(=O)NCC(=O)NCC(=O)N[C@@H](CCCCN)C(=O)N[C@@H](CCC(=O)O)C(=O)N[C@H](C(=O)N[C@@H](C)C(=O)N[C@@H](C)C(=O)N[C@@H](C)C(=O)N[C@@H](CCCCN)C(=O)N[C@@H](Cc2ccccc2)C(=O)N[C@@H](CCC(=O)O)C(=O)N[C@@H](CCCNC(=N)N)C(=O)N[C@@H](CCC(N)=O)C(=O)N[C@@H](Cc2c[nH]cn2)C(=O)N[C@@H](CCSC)C(=O)N[C@@H](CC(=O)O)C(=O)N[C@@H](CO)C(N)=O)[C@@H](C)O)NC(=O)CNC(=O)[C@H](CCCNC(=N)N)NC(=O)[C@H](CC(C)C)NC(=O)[C@H](CCCNC(=N)N)NC(=O)[C@@H]2CSCN2C(=O)[C@H](CCSC)NC1=O | co-localization with hTfR [1]: No co-localization
under 10% | CCC(=O)N[C@@H](CC(C)C)C(=O)N[C@@H](CCCNC(=N)N)C(=O)N[C@@H](CCCCN)C(=O)N[C@@H](CC(C)C)C(=O)N[C@@H](CCCNC(=N)N)C(=O)N[C@@H](CCCCN)C(=O)N[C@@H](CCCNC(=N)N)C(=O)N[C@@H](CC(C)C)C(=O)N[C@@H](CC(C)C)C(=O)N[C@@H](CC(C)C)C(=O)N[C@@H](CCCNC(=N)N)C(=O)N[C@@H](CCCCN)C(=O)N[C@@H](CC(C)C)C(=O)N[C@@H](CCCNC(=N)N)C(=O)N[C@@H](CCCCN)C(=O)N[C@@H](CCCNC(=N)N)C(=O)N[C@@H](CC(C)C)C(=O)N[C@@H](CC(C)C)C(=O)NCC(=O)NCC(=O)NCC(=O)N[C@@H](CCCCN)C(=O)N[C@@H](CCC(=O)O)C(=O)N[C@H](C(=O)N[C@@H](C)C(=O)N[C@@H](C)C(=O)N[C@@H](C)C(=O)N[C@@H](CCCCN)C(=O)N[C@@H](Cc1ccccc1)C(=O)N[C@@H](CCC(=O)O)C(=O)N[C@@H](CCCNC(=N)N)C(=O)N[C@@H](CCC(N)=O)C(=O)N[C@@H](Cc1c[nH]cn1)C(=O)N[C@@H](CCSC)C(=O)N[C@@H](CC(=O)O)C(=O)N[C@@H](CO)C(N)=O)[C@@H](C)O [ApoE2-S-Tag] (Propionyl-LRKLRKRLLLRKLRKRLLGGGKETAAAKFERQHMDS-NH2) | –
under 10% | Propionyl-SVIDALQYKLEGTTRLTRKRGLKLATALSLSNKFVEGSGGGKETAAAKFERQHMDS-NH2 [ApoB-S-Tag] | –
– | hIgG1Fc-SMCC- (Pr- cRPLGRMC-G-(CH2)2-S)2 (disulfide) [(VH4Sc)2-Fc, human IgG1-Fc chemically conjugated to scrambled VH4Sc peptide via sulfo-SMCC] | Fc labeling in adrenal gland zona fasciculata [3]: no Fc labeling
